Laboratory results: patent US8501786B2, “Hydroxymethyl pyrrolidines as beta 3 adrenergic receptor agonists” (Merck Sharp & Dohme Corp., priority 2009, dated 2013)
Where a name gives a salt, the structure may show the parent alone.

Each compound was assayed against T1, human β3 adrenergic receptor (Homo sapiens, UniProt P13945) (assay: Functional assay: cAMP production (LANCE TR-FRET) in CHO cells stably transfected with cloned β3 adrenergic receptor). Conditions: Table 2; cAMP production, CHO cells expressing human β3 AR; read-out: Human β3 functional.
T1 construct: stably transfected with the cloned β-adrenergic receptor (β1, β2 or β3); expressed in transfected cells; host or cells: Chinese hamster ovary (CHO) cells, stably transfected
T1 sequence (P13945 whole entry): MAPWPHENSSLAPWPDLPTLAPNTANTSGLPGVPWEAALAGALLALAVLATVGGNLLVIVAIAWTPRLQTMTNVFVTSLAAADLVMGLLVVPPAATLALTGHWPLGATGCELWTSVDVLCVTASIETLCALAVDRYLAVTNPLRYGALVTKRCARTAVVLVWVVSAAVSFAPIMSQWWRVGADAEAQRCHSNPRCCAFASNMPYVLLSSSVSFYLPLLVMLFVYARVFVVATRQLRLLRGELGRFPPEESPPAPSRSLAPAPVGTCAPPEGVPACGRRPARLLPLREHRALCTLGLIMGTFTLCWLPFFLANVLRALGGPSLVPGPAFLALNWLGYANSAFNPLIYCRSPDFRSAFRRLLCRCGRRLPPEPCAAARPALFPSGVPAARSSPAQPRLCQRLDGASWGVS
Type: cell-based
Procedure: Functional Assay: cAMP production in response to ligand is measured according to Barton, et al. (1991, Agonist-induced desensitization of D2 dopamine receptors in human Y-79 retinoblastoma cells. Mol. Pharmacal. v3229:650-658) modified as follows, cAMP production is measured using a homogenous time-resolved fluorescence resonance energy transfer immunoassay (LANCE™, Perkin Elmer) according to the manufacture's instructions. Chinese hamster ovary (CHO) cells, stably transfected with the cloned β-adrenergic receptor (β1, β2 or β3) are harvested after 3 days of subculturing. Harvesting of cells is done with Enzyme-free Dissociation Media (Specialty Media). Cells are then counted and resuspended in assay buffer (Hank's Balanced salt solution supplemented with 5 mM HEPES, […]) containing a phosphodiesterase inhibitor (IBMX, 0.6 mM). The reaction is initiated by mixing 6,000 cells in 6 μL with 6 μL Alexa Fluor labeled cAMP antibody (LANCE™ kit) which is then added to an assay well containing 12 μL of compound (diluted in assay buffer to 2× final concentration). The reaction proceeds for 30 min at room temperature and is terminated by the addition of 24 ul detection buffer (LANCE™ kit). The assay plate is then incubated for 1 h at room temperature and time-resolved fluorescence measured on a Perkin Elmer Envision reader or equivalent. The unknown cAMP level is determined by comparing fluorescence levels to a cAMP standard curve.
The non-selective, full agonist β-adrenergic ligand isoproterenol is used at all three receptors to determine maximal stimulation. The human β3 adrenergic receptor (AR) selective ligand (S)-N-[4-[2-[[2-hydroxy-3-(4-hydroxyphenoxy)propyl]amino]ethyl]-phenyl]-4-iodobenzenesulfonamide is used as a control in all assays. Isoproterenol is titrated at a final concentration in the assay of 10^-10 M to 10-5 and the selective ligand (S)-N-[4-[2-[[2-hydroxy-3-(4-hydroxyphenoxy)propyl]amino]ethyl]phenyl]-4-iodobenzenesulfonamide is titrated at the β3 receptor at concentration of 10^-10 M to 10^-5 M. Unknown ligands are titrated at all 3 β-adrenergic receptor subtypes at a final concentration in the assay of 10^-10 M to 10^-5 M to determine the EC50. The EC50 is defined as the concentration of compound that gives 50% activation of its own maximum. Data are analyzed using Microsoft Excel and Graphpad Prism or an internally developed data analysis software package.
An EC50 of 0.001 to 0.01 µM was found for O=C(Cn1cnc2ccccc2c1=O)Nc1ccc(CC2CC[C@H]([C@H](O)c3cccnc3)N2)cc1 (single isomer, unassigned) [Example 12] in this work.
An EC50 of 0.001 to 0.01 µM was found for O=C(Cn1cnc2ccccc2c1=O)Nc1ccc(CC2CC[C@H]([C@H](O)c3cccnc3)N2)cc1 (single isomer, unassigned) [Example 64] in this work.

Same assay, conditions: Table 3; cAMP production, CHO cells expressing human β3 AR; read-out: Human β3 functional
An EC50 of 0.011 to 0.1 µM was found for CC(C(=O)Nc1ccc(CC2CC[C@H]([C@H](O)c3cccnc3)N2)cc1)n1cccn1 (single isomer, unassigned) [Example 97] in this work.
An EC50 of 0.011 to 0.1 µM was found for CC(C(=O)Nc1ccc(CC2CC[C@H]([C@H](O)c3cccnc3)N2)cc1)n1cccn1 (single isomer, unassigned) [Example 98] in this work.
An EC50 of 0.011 to 0.1 µM was found for Cc1ccn(C(C)C(=O)Nc2ccc(CC3CC[C@H]([C@H](O)c4cccnc4)N3)cc2)n1 (single isomer, unassigned) [Example 99] in this work.
An EC50 of 1 to 3 µM was found for Cc1ccn(C(C)C(=O)Nc2ccc(CC3CC[C@H]([C@H](O)c4cccnc4)N3)cc2)n1 (single isomer, unassigned) [Example 100] in this work.
An EC50 of 0.001 to 0.01 µM was found for Cc1nc(C(C)C(=O)Nc2ccc(CC3CC[C@H]([C@H](O)c4cccnc4)N3)cc2)cs1 (single isomer, unassigned) [Example 101] in this work.
An EC50 of 0.101 to 1 µM was found for Cc1nc(C(C)C(=O)Nc2ccc(CC3CC[C@H]([C@H](O)c4cccnc4)N3)cc2)cs1 (single isomer, unassigned) [Example 102] in this work.
An EC50 of 0.101 to 1 µM was found for Cc1nc(C(C)C(=O)Nc2ccc(CC3CC[C@H]([C@H](O)c4cccnc4)N3)cc2)c(C)s1 (single isomer, unassigned) [Example 103] in this work.
An EC50 of 1 to 3 µM was found for Cc1nc(C(C)C(=O)Nc2ccc(CC3CC[C@H]([C@H](O)c4cccnc4)N3)cc2)c(C)s1 (single isomer, unassigned) [Example 104] in this work.
An EC50 of 0.001 to 0.01 µM was found for CC(C(=O)Nc1ccc(CC2CC[C@H]([C@H](O)c3cccnc3)N2)cc1)c1csc(N)n1 (single isomer, unassigned) [Example 105] in this work.
An EC50 of 0.001 to 0.01 µM was found for CC(C(=O)Nc1ccc(CC2CC[C@H]([C@H](O)c3cccnc3)N2)cc1)c1csc(N)n1 (single isomer, unassigned) [Example 106] in this work.
An EC50 of 0.011 to 0.1 µM was found for CCCC(C(=O)Nc1ccc(CC2CC[C@H]([C@H](O)c3cccnc3)N2)cc1)c1csc(N)n1 (single isomer, unassigned) [Example 107] in this work.
An EC50 of 0.001 to 0.01 µM was found for CCCC(C(=O)Nc1ccc(CC2CC[C@H]([C@H](O)c3cccnc3)N2)cc1)c1csc(N)n1 (single isomer, unassigned) [Example 108] in this work.
An EC50 of 0.001 to 0.01 µM was found for CCCC(C(=O)Nc1ccc(CC2CC[C@H]([C@H](O)c3cccnc3)N2)cc1)c1cnc(N)s1 (single isomer, unassigned) [Example 109] in this work.
An EC50 of 0.001 to 0.01 µM was found for C#CCC(C(=O)Nc1ccc(CC2CC[C@H]([C@H](O)c3cccnc3)N2)cc1)c1cnc(N)s1 (single isomer, unassigned) [Example 110] in this work.
An EC50 of 0.011 to 0.1 µM was found for CC(C(=O)Nc1ccc(CC2CC[C@H]([C@H](O)c3cccnc3)N2)cc1)c1csc(C(F)(F)F)n1 (single isomer, unassigned) [Example 111] in this work.
An EC50 of 0.101 to 1 µM was found for CC(C(=O)Nc1ccc(CC2CC[C@H]([C@H](O)c3cccnc3)N2)cc1)c1csc(C(F)(F)F)n1 (single isomer, unassigned) [Example 112] in this work.
An EC50 of under 0.001 µM was found for Nc1nc2c(s1)CCC2C(=O)Nc1ccc(CC2CC[C@H]([C@H](O)c3cccnc3)N2)cc1 (single isomer, unassigned) [Example 113] in this work.
An EC50 of 0.011 to 0.1 µM was found for Nc1nc2c(s1)CCC2C(=O)Nc1ccc(CC2CC[C@H]([C@H](O)c3cccnc3)N2)cc1 (single isomer, unassigned) [Example 114] in this work.
An EC50 of 0.001 to 0.01 µM was found for Cc1nc2c(s1)CCC2C(=O)Nc1ccc(CC2CC[C@H]([C@H](O)c3cccnc3)N2)cc1 (single isomer, unassigned) [Example 115] in this work.
An EC50 of 0.101 to 1 µM was found for Cc1nc2c(s1)CCC2C(=O)Nc1ccc(CC2CC[C@H]([C@H](O)c3cccnc3)N2)cc1 (single isomer, unassigned) [Example 116] in this work.
An EC50 of 0.011 to 0.1 µM was found for Cc1nc2c(s1)CCC2C(=O)Nc1ccc(CC2CC[C@H]([C@H](O)c3cccnc3)N2)cc1 (single isomer, unassigned) [Example 117] in this work.
An EC50 of 0.101 to 1 µM was found for Cc1nc2c(s1)CCC2C(=O)Nc1ccc(CC2CC[C@H]([C@H](O)c3cccnc3)N2)cc1 (single isomer, unassigned) [Example 118] in this work.
An EC50 of 0.101 to 1 µM was found for CCc1nc2c(s1)CCC2C(=O)Nc1ccc(CC2CC[C@H]([C@H](O)c3cccnc3)N2)cc1 (single isomer, unassigned) [Example 119] in this work.
An EC50 of 0.011 to 0.1 µM was found for CCc1nc2c(s1)CCC2C(=O)Nc1ccc(CC2CC[C@H]([C@H](O)c3cccnc3)N2)cc1 (single isomer, unassigned) [Example 120] in this work.
An EC50 of 0.011 to 0.1 µM was found for O=C(Nc1ccc(CC2CC[C@H]([C@H](O)c3cccnc3)N2)cc1)C1CCc2sc(C3CC3)nc21 (single isomer, unassigned) [Example 121] in this work.
An EC50 of 0.101 to 1 µM was found for O=C(Nc1ccc(CC2CC[C@H]([C@H](O)c3cccnc3)N2)cc1)C1CCc2sc(C3CC3)nc21 (single isomer, unassigned) [Example 122] in this work.
An EC50 of 0.101 to 1 µM was found for CC(C)c1nc2c(s1)CCC2C(=O)Nc1ccc(CC2CC[C@H]([C@H](O)c3cccnc3)N2)cc1 (single isomer, unassigned) [Example 123] in this work.
An EC50 of 0.011 to 0.1 µM was found for CC(C)c1nc2c(s1)CCC2C(=O)Nc1ccc(CC2CC[C@H]([C@H](O)c3cccnc3)N2)cc1 (single isomer, unassigned) [Example 124] in this work.
An EC50 of 0.011 to 0.1 µM was found for COCc1nc2c(s1)CCC2C(=O)Nc1ccc(CC2CC[C@H]([C@H](O)c3cccnc3)N2)cc1 (single isomer, unassigned) [Example 125] in this work.
An EC50 of 0.101 to 1 µM was found for COCc1nc2c(s1)CCC2C(=O)Nc1ccc(CC2CC[C@H]([C@H](O)c3cccnc3)N2)cc1 (single isomer, unassigned) [Example 126] in this work.
An EC50 of 0.001 to 0.01 µM was found for O=C(Nc1ccc(CC2CC[C@H]([C@H](O)c3cccnc3)N2)cc1)C1CCc2cccnc21 (single isomer, unassigned) [Example 127] in this work.
An EC50 of 0.001 to 0.01 µM was found for O=C(Nc1ccc(CC2CC[C@H]([C@H](O)c3cccnc3)N2)cc1)C1CCc2cccnc21 (single isomer, unassigned) [Example 128] in this work.
An EC50 of 1 to 3 µM was found for Cc1nc2c(s1)CCC2(C)C(=O)Nc1ccc(CC2CC[C@H]([C@H](O)c3cccnc3)N2)cc1 (single isomer, unassigned) [Example 129] in this work.
An EC50 of 0.101 to 1 µM was found for Cc1nc2c(s1)CCC2(C)C(=O)Nc1ccc(CC2CC[C@H]([C@H](O)c3cccnc3)N2)cc1 (single isomer, unassigned) [Example 130] in this work.
An EC50 of 0.001 to 0.01 µM was found for Cc1nc2c(s1)CCCC2C(=O)Nc1ccc(CC2CC[C@H]([C@H](O)c3cccnc3)N2)cc1 (single isomer, unassigned) [Example 131] in this work.
An EC50 of 0.101 to 1 µM was found for Cc1nc2c(s1)CCCC2C(=O)Nc1ccc(CC2CC[C@H]([C@H](O)c3cccnc3)N2)cc1 (single isomer, unassigned) [Example 132] in this work.
An EC50 of 0.011 to 0.1 µM was found for Cc1nc2c(s1)CCCC2C(=O)Nc1ccc(CC2CC[C@H]([C@H](O)c3cccnc3)N2)cc1 (single isomer, unassigned) [Example 133] in this work.
An EC50 of 0.011 to 0.1 µM was found for Cc1nc2c(s1)CCCC2C(=O)Nc1ccc(CC2CC[C@H]([C@H](O)c3cccnc3)N2)cc1 (single isomer, unassigned) [Example 134] in this work.
An EC50 of 0.011 to 0.1 µM was found for O=C(Cc1nc2c(s1)CCC2C(=O)Nc1ccc(CC2CC[C@H]([C@H](O)c3cccnc3)N2)cc1)NCc1ccccc1 (single isomer, unassigned) [Example 135] in this work.

Same assay, conditions: cAMP production, CHO cells expressing human β3 AR; read-out: human Beta-3 agonist functional activity
An EC50 of under 0.1 µM was found for C[C@H](C(=O)Nc1ccc(C[C@@H]2CC[C@H]([C@H](O)c3cccnc3)N2)cc1)c1ccccn1 (single isomer, unassigned) [Example 93, trifluoroacetic acid salt] in this work.
An EC50 of under 0.1 µM was found for C[C@@H](C(=O)Nc1ccc(C[C@@H]2CC[C@H]([C@H](O)c3cccnc3)N2)cc1)c1ccccn1 (single isomer, unassigned) [Example 94, trifluoroacetic acid salt] in this work.
An EC50 of under 0.01 µM was found for C[C@@H](C(=O)Nc1ccc(C[C@@H]2CC[C@H]([C@H](O)c3cccnc3)N2)cc1)n1ccccc1=O (single isomer, unassigned) [Example 95] in this work.
An EC50 of under 0.01 µM was found for C[C@H](C(=O)Nc1ccc(C[C@@H]2CC[C@H]([C@H](O)c3cccnc3)N2)cc1)n1ccccc1=O (single isomer, unassigned) [Example 96, trifluoroacetic acid salt] in this work.
